{"source": "patent US20070092460A1", "about": "“Silylated compounds as precursors for self-tanning compositions” (priority 2000, published 2007)", "assay": "in vitro colour development test with lysine solution (Bobin et al.)", "protocol": "0.02 mol/l of lysine are dissolved in a phosphate buffer system in accordance with DIN 19268 (pH 7). 10 ml of this solution are treated with 0.002 mol of 1,3-bis(trimethylsiloxy)-2-propanone and the mixture is stirred at 32-35° C. for 72 h.\nAs comparison, 10 ml of the lysine solution are treated with 0.002 mol of dihydroxyacetone and stirred at 32-35° C. for 72 h.", "data": [{"smiles": "C[Si](C)(C)OCC(=O)CO[Si](C)(C)C", "note": "[1,3-bis(trimethylsiloxy)-2-propanone, 1,3-bis(Trimethylsiloxy)-2-propanone]", "values": [{"measurement": "brown coloration", "setting": "0.002 mol substance in 10 ml of 0.02 mol/l lysine in phosphate buffer pH 7, stirred at 32-35° C. for 72 h", "result": "comparable brown coloration"}, {"measurement": "rate of development of the brown coloration", "setting": "compared with dihydroxyacetone, lysine in phosphate buffer pH 7, 32-35° C.", "result": "develops more slowly"}]}]}
